Reference: patent US7371822B2, “Human G-protein coupled receptor variant of HM74, HGPRBMY74” (Bristol-Myers Squibb Company, priority 2003, dated 2008)
Like-named read-outs stand apart in the source and are kept apart here.

Test system: human kidney 293E cells stably transfected with Gαiq—5
Experiment: cells
Details: 293E cells with Gαiq—5 coding region only
Protocol: The growth medium in the 6-well plate was replaced with antibiotic-free medium at 3 ml per well. DNA complexes were added at 320 μl per well and plates were returned to the incubator. […] 25 μl of this suspension was added to 30 ml of selective medium in a 15 cm tissue culture plate. Cells were maintained in selective medium for approximately two weeks. Five single clones were isolated and grown in 24-well, then 6-well, then T-75 tissue culture plates.
Thirty hours later cells were loaded with 100 μl loading dye. […] A stock solution of Probenecid (Sigma P8761) was prepared by dissolving 70 mg in 500 μl 1 M NaOH and then adding 500 μl of FIPR assay buffer. This was added to the loading solution at a final concentration of 700 μg/ml. After adding the loading dye, cells were returned to the incubator for one hour.
After one hour loading, dye was removed from the wells by gentle aspiration and replaced with 120 μl of FLIPR assay buffer.
Data were analyzed and plotted using XLfit (IDBS).

O=C(O)c1cccnc1 [nicotinic acid, Nicotinic acid]
EC50 (Homo sapiens, read-out: calculated EC50, FIG. 5): 833 nM | EC50 (read-out: calculated EC50, FIG. 5): 823 nM
